Test results as given in patent US6362188B1, “Farnesyl protein transferase inhibitors” (Schering Corporation, priority 1998, dated 2002).

Experiments:
Human tumor cells = test: Soft Agar Assay (anchorage-independent growth); assay type: cell-based; conditions: colony outgrowth in soft agar, stated as a range for the group
Procedure: Anchorage-independent growth is a characteristic of tumorigenic cell lines. Human tumor cells can be suspended in growth medium containing 0.3% agarose and an indicated concentration of a farnesyl transferase inhibitor. The solution can be overlayed onto growth medium solidified with 0.6% agarose containing the same concentration of farnesyl transferase inhibitor as the top layer. After the top layer is solidified, plates can be incubated for 10-16 days at 37° C. under 5% CO2 to allow colony outgrowth. After incubation, the colonies can be stained by overlaying the agar with a solution of MTT (3-[4,5-dimethyl-thiazol-2-yl]-2,5-diphenyltetrazolium bromide, Thiazolyl blue) (1 mg/mL in PBS). Colonies can be counted and the IC50's can be determined.

IC50 (Human tumor cells) [nM] | melting point [°C] | Compound
0.05 to 30 | 98 to 130 | Cc1ncn(CC2CCCN(C(=O)C3CN(C4c5ccc(Cl)cc5CCc5cccnc54)CCN3C(=O)OC3CCCCC3)C2)c1C (single isomer, unassigned) [47(G)]
0.5 to 30 | 110 to 119 | Cc1nccn1CC1CCCN(C(=O)C2CN(C3c4ccc(Cl)cc4CCc4cccnc43)CCN2C(=O)OC(C)(C)C)C1 (single isomer, unassigned) [Example 27]
0.5 to 30 | 109 to 124 | Cc1cn(CC2CCCN(C(=O)C3CN(C4c5ccc(Cl)cc5CCc5cccnc54)CCN3C(=O)OC(C)(C)C)C2)cn1 (single isomer, unassigned) [Example 29]
0.5 to 30 | 92 to 101 | Cc1nccn1CC1CCCN(C(=O)C2CN(C3c4ccc(Cl)cc4CCc4cccnc43)CCN2C(=O)OC(C)C)C1 (single isomer, unassigned) [Example 38]
0.5 to 30 | 112 to 135 | Cc1nccn1CC1CCCN(C(=O)C2CN(C3c4ccc(Cl)cc4CCc4cccnc43)CCN2C(=O)OC2CCCCC2)C1 (single isomer, unassigned) [Example 44]
0.05 to 30 | 99 to 107 | Cc1cn(CC2CCCN(C(=O)C3CN(C4c5ccccc5CCc5cc(Cl)cnc54)CCN3C(=O)OC(C)(C)C)C2)cn1 (single isomer, unassigned) [Example 291]
0.05 to 30 | 110 to 112 | CCc1cn(CC2CCCN(C(=O)C3CN(C4c5ccc(Cl)cc5CCc5cccnc54)CCN3C(=O)OC(C)(C)C)C2)cn1 (centres unmarked) [35(A)]
0.05 to 30 | 115 to 120 | Cc1cn(CC2CCCN2C(=O)C2CN(C3c4ccc(Cl)cc4CCc4cccnc43)CCN2C(=O)OC(C)(C)C)cn1 (centres unmarked) [35(F)]
0.05 to 30 | 104 to 108 | CC(C)OC(=O)N1CCN(C2c3ccc(Cl)cc3CCc3cccnc32)CC1C(=O)N1CCCC(Oc2cccnc2)C1 (centres unmarked) [41(C)]
0.05 to 30 | 66 to 68 | CCc1cn(CC2CCCN(C(=O)C3CN(C4c5ccc(Cl)cc5CCc5cccnc54)CCN3C(=O)OC3CCCCC3)C2)cn1 (centres unmarked) [47(D)]
0.05 to 30 | 113 to 115 | O=C(C1CN(C2c3ccc(Cl)cc3CCc3cccnc32)CCN1C(=O)OC1CCCCC1)N1CCCC(Cc2cnc[nH]2)C1 (centres unmarked) [47(I)]
0.05 to 30 | 101 to 123 | Cn1cncc1CC1CCCN(C(=O)C2CN(C3c4ccc(Cl)cc4CCc4cccnc43)CCN2C(=O)OC2CCCCC2)C1 (centres unmarked) [47(K)]
0.05 to 30 | 117 to 120 | O=C(C1CN(C2c3ccc(Cl)cc3CCc3cccnc32)CCN1C(=O)OC1CCCCC1)N1CCCC(Oc2cccnc2)C1 (centres unmarked) [47(U)]
0.5 to 30 | 126 to 131 | Cc1nccn1CC1CCCN(C(=O)C2CN(C3c4ccc(Cl)cc4CCc4cc(Br)cnc43)CCN2C(=O)OC(C)(C)C)C1 (centres unmarked) [Example 3]
0.5 to 30 | 114 to 121 | Cc1cn(CC2CCCN(C(=O)C3CN(C4c5ccc(Cl)cc5CCc5cc(Br)cnc54)CCN3C(=O)OC(C)(C)C)C2)cn1 (centres unmarked) [Example 4.1]
 | 131 to 135 | Cc1cn(CC2CCCN(C(=O)C3CN(C4c5ccc(Cl)cc5CCc5cc(Br)cnc54)CCN3C(=O)OC(C)(C)C)C2)cn1 (centres unmarked) [Example 4.2]
 | 128 to 133 | Cc1nccn1CC1CCCN(C(=O)C2CN(C3c4ccc(Cl)cc4CCc4cc(Br)cnc43)CCN2C(=O)OC(C)(C)C)C1 (centres unmarked) [Example 4]
0.5 to 30 | 123 to 134 | CN1CCN(C(=O)C2CN(C3c4ccc(Cl)cc4CCc4cc(Br)cnc43)CCN2C(=O)OC(C)(C)C)CC1Cn1ccnc1 (centres unmarked) [Example 5]
 | 179 to 182 | CC(C)(C)OC(=O)N1CCN(C2c3ccc(Cl)cc3CCc3cc(Br)cnc32)CC1C(=O)N1CCS(=O)(=O)C(Cn2ccnc2)C1 (centres unmarked) [Example 8]

IC50 (Human tumor cells) [nM] | melting point [°C] | Compound
0.5 to 30 | 130 to 134 | CC(C)(C)OC(=O)N1CCN([C@@H]2c3ccc(Cl)cc3CCc3cc(Br)cnc32)C[C@@H]1C(=O)N1CCC[C@H](Cn2ccnc2)C1 [Example 10]
0.5 to 30 | 122 to 127 | CC(C)(C)OC(=O)N1CCN([C@H]2c3ccc(Cl)cc3CCc3cc(Br)cnc32)C[C@@H]1C(=O)N1CCC[C@H](Cn2ccnc2)C1 [Example 11]
0.5 to 30 | 135 to 138 | CC(C)(C)OC(=O)N1CCN([C@@H]2c3ccc(Cl)cc3CCc3cc(Br)cnc32)C[C@@H]1C(=O)N1CCC[C@@H](Cn2ccnc2)C1 [Example 12]
0.5 to 30 | 127 to 130 | CC(C)(C)OC(=O)N1CCN([C@H]2c3ccc(Cl)cc3CCc3cc(Br)cnc32)C[C@@H]1C(=O)N1CCC[C@@H](Cn2ccnc2)C1 [Example 13]
0.5 to 30 | 126 to 128 | CC(C)OC(=O)N1CCN([C@@H]2c3ccc(Cl)cc3CCc3cc(Br)cnc32)C[C@@H]1C(=O)N1CCC[C@@H](Cn2ccnc2)C1 [Example 14]
0.5 to 30 | 140 to 144 | O=C([C@H]1CN([C@@H]2c3ccc(Cl)cc3CCc3cc(Br)cnc32)CCN1C(=O)OC1CCCCC1)N1CCC[C@@H](Cn2ccnc2)C1 [Example 15]
 | 132 to 136 | CC(C)NC(=O)N1CCN([C@@H]2c3ccc(Cl)cc3CCc3cc(Br)cnc32)C[C@@H]1C(=O)N1CCC[C@@H](Cn2ccnc2)C1 [Example 17]
 | 112 to 120 | CC(C)(C)NC(=O)N1CCN([C@@H]2c3ccc(Cl)cc3CCc3cc(Br)cnc32)C[C@@H]1C(=O)N1CCC[C@H](Cn2ccnc2)C1 [Example 18]
 | 123 to 132 | CC(C)OC(=O)N1CCN([C@@H]2c3ccc(Cl)cc3CCc3cc(Br)cnc32)C[C@@H]1C(=O)N1CCC[C@H](Cn2ccnc2)C1 [Example 19]
 | 137 to 139 | CC(C)(C)NC(=O)N1CCN(C2c3ccc(Cl)cc3CCc3cc(Br)cnc32)C[C@@H]1C(=O)N1CCC[C@@H]1Cn1ccnc1 (some centres unmarked) [Example 21]
 | 135 to 141 | CS(=O)(=O)N1CCN(C2c3ccc(Cl)cc3CCc3cc(Br)cnc32)C[C@@H]1C(=O)N1CCC[C@@H]1Cn1ccnc1 (some centres unmarked) [Example 22]
 | 124 to 143 | CC(C)(C)OC(=O)N1CCN(C2c3ccc(Cl)cc3CCc3cccnc32)CC1C(=O)N1CCCC(Cn2ccnc2)C1 (centres unmarked) [Example 25]
 | 123 to 132 | Cc1cn(CC2CCCN(C(=O)C3CN(C4c5ccc(Cl)cc5CCc5cccnc54)CCN3C(=O)OC(C)C)C2)cn1 (centres unmarked) [Example 36]
 | 95 to 111 | Cc1cn(CC2CCCN(C(=O)C3CN(C4c5ccc(Cl)cc5CCc5cccnc54)CCN3C(=O)OC(C)C)C2)cn1 (centres unmarked) [Example 37]
 | 99 to 113 | Cc1cn(CC2CCCN(C(=O)C3CN(C4c5ccc(Cl)cc5CCc5cccnc54)CCN3C(=O)OC3CCCCC3)C2)cn1 (centres unmarked) [Example 42]
 | 108 to 118 | Cc1cn(CC2CCCN(C(=O)C3CN(C4c5ccc(Cl)cc5CCc5cccnc54)CCN3C(=O)OC3CCCCC3)C2)cn1 (centres unmarked) [Example 43]
 | 105 to 113 | O=C([C@H]1CN(C2c3ccc(Cl)cc3CCc3cc(Cl)cnc32)CCN1C(=O)OC1CCCCC1)N1CCCC(Oc2cccnc2)C1 (some centres unmarked) [Example 254A]
 | 98 to 112 | Cc1cn(C[C@@H]2CCCN(C(=O)[C@H]3CN(C4c5ccccc5CCc5ccccc54)CCN3C(=O)OC3CCCCC3)C2)cn1 [Example 414]
